Assay results as given in ChEMBL document CHEMBL3879901, “Substituted isoquinolin-1(2H)-ones, and methods of use thereof” (2012).

Columns and labels:
[1] = target: PI3-kinase p110-delta/p85-alpha (Homo sapiens, UniProt O00329); test: Inhibition of N-terminal His6-tagged recombinant full-length human p110delta/untagged recombinant full length p85alpha expressed in baculovirus infected Sf21 cells using phosphatidylinositol as substrate in presence of gamma-32P-ATP after 5 mins by thin layer chromatographic method
PI3-kinase p110-delta/p85-alpha, sequence (P27986 whole entry, canonical isoform): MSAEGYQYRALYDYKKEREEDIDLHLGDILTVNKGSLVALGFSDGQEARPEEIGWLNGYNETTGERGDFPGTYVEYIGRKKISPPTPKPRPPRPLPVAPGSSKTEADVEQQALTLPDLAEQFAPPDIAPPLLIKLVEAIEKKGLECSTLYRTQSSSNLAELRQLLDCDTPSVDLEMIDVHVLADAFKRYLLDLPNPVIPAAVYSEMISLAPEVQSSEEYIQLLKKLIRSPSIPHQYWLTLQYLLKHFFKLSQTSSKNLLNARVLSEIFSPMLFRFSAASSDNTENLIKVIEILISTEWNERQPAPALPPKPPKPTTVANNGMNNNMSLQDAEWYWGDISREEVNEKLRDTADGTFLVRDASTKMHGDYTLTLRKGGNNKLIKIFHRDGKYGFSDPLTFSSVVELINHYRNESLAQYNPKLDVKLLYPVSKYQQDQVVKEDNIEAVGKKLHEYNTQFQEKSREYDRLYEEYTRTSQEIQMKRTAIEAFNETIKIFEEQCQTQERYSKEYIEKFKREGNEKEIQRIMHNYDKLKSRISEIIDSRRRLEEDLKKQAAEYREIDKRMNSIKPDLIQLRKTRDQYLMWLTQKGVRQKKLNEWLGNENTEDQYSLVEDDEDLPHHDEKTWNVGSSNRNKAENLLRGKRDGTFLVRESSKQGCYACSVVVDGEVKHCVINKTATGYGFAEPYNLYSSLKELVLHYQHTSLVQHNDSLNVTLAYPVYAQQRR
PI3-kinase p110-delta/p85-alpha, sequence (O00329 whole entry, canonical isoform): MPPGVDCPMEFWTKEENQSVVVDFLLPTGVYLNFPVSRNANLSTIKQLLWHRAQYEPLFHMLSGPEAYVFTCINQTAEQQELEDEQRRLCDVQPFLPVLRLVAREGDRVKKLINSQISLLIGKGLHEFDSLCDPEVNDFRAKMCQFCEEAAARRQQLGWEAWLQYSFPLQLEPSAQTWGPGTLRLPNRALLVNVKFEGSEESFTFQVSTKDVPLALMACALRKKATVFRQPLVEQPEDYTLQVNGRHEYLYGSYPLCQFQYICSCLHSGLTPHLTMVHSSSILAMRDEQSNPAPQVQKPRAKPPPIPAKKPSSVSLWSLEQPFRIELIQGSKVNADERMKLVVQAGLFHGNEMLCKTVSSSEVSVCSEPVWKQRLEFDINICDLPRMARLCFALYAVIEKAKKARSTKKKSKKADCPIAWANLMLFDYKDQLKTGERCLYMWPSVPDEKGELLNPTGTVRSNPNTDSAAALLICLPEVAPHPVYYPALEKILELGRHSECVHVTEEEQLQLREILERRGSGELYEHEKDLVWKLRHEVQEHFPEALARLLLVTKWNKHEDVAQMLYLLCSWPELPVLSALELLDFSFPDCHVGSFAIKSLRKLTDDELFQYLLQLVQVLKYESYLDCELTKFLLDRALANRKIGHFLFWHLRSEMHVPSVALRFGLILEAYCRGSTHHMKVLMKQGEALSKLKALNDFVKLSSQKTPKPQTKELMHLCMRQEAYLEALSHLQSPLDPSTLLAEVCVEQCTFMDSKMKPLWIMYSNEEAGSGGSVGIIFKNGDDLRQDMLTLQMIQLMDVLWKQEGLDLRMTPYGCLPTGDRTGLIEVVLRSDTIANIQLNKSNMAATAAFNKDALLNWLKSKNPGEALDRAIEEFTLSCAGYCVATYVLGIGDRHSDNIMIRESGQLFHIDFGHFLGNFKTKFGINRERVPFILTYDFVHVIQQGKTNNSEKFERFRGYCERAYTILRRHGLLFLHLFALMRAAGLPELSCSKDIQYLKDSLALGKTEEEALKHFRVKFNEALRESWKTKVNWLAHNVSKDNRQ

[2] = target: Phosphatidylinositol 4,5-bisphosphate 3-kinase catalytic subunit gamma isoform (Homo sapiens, UniProt P48736); test: Inhibition of recombinant human C-terminal His6-tagged p110gamma expressed in insect cells using phosphatidylinositol as substrate in presence of gamma-32P-ATP after 5 mins by thin layer chromatographic method
Phosphatidylinositol 4,5-bisphosphate 3-kinase catalytic subunit gamma isoform, sequence (P48736 whole entry, canonical isoform): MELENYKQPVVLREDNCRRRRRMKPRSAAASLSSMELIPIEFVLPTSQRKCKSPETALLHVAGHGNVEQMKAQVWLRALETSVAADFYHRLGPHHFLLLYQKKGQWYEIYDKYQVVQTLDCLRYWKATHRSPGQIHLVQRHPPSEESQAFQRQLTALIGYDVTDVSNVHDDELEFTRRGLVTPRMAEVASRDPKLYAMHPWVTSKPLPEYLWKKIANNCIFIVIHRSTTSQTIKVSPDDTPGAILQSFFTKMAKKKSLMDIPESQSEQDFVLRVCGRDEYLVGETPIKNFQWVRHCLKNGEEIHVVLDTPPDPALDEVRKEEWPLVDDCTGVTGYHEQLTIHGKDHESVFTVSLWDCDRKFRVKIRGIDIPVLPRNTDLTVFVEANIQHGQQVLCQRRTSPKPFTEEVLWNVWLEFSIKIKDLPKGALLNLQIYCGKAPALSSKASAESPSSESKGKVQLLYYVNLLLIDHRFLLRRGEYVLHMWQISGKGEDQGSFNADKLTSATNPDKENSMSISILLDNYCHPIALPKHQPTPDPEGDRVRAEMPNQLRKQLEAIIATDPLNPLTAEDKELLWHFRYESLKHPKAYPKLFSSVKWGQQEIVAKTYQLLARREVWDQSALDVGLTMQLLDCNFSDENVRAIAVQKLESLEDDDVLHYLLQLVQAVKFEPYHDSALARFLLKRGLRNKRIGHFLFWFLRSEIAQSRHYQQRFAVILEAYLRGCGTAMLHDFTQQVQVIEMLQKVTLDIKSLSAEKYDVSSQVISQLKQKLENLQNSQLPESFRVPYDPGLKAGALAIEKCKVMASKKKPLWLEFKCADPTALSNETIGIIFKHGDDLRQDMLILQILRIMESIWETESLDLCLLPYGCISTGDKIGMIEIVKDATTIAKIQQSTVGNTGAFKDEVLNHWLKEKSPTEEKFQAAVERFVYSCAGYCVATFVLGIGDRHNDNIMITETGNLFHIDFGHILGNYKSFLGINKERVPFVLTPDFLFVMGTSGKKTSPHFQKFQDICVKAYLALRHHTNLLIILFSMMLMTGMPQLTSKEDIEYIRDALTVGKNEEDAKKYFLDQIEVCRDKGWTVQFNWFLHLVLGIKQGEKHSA

[3] = Antiproliferative activity against Balb/c mouse splenic B cells preincubated for 30 mins followed by LPS or F(ab')2 donkey anti-mouse IgM and recombinant mouse IL4 stimulation measured after 72 hrs by Alamar Blue reduction assay; assay type: functional, cell-based
[4] = target: PI3K p110 beta/p85 alpha (Homo sapiens, UniProt P42338); test: Inhibition of N-terminal His6-tagged recombinant full-length human p110beta/untagged recombinant full length p85alpha expressed in baculovirus infected Sf21 cells using phosphatidylinositol as substrate in presence of gamma-32P-ATP after 5 mins by thin layer chromatographic method
PI3K p110 beta/p85 alpha, sequence (P27986 whole entry): as the sequence (P27986 whole entry, canonical isoform) above
PI3K p110 beta/p85 alpha, sequence (P42338 whole entry): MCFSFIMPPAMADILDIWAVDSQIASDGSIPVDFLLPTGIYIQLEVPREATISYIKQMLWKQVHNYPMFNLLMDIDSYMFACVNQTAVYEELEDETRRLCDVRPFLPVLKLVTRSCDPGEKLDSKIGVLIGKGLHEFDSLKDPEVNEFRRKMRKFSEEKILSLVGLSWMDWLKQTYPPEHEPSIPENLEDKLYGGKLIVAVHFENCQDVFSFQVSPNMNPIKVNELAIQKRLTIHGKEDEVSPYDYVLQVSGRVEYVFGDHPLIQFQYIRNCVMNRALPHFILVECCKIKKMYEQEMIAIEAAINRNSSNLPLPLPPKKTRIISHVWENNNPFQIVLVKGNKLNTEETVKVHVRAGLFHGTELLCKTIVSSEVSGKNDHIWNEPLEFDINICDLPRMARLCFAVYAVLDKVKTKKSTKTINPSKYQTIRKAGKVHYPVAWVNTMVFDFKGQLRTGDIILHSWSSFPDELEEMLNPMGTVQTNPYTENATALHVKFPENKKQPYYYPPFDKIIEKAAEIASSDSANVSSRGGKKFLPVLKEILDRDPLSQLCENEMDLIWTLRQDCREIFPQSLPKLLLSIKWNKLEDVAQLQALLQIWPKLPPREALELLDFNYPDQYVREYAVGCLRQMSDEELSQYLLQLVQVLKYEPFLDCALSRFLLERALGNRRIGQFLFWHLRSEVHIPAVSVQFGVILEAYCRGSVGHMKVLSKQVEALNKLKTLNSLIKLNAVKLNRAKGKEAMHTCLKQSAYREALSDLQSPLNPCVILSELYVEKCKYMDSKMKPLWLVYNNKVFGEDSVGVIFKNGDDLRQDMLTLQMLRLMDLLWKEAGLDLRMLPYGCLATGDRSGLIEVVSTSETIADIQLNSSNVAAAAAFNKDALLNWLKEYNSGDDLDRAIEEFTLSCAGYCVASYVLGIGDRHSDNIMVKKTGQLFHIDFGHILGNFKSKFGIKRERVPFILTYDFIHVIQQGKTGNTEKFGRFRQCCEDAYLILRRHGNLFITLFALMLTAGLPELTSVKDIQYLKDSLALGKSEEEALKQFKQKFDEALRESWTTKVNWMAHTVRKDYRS

[5] = target: PI3-kinase p110-alpha/p85-alpha (Homo sapiens, UniProt P42336); test: Inhibition of N-terminal His6-tagged recombinant full-length human p110alpha/untagged recombinant full length human p85alpha expressed in baculovirus infected Sf21 cells using phosphatidylinositol as substrate in presence of gamma-32P-ATP after 5 mins by thin layer chromatographic method
PI3-kinase p110-alpha/p85-alpha, sequence (P27986 whole entry): as the sequence (P27986 whole entry, canonical isoform) above
PI3-kinase p110-alpha/p85-alpha, sequence (P42336 whole entry): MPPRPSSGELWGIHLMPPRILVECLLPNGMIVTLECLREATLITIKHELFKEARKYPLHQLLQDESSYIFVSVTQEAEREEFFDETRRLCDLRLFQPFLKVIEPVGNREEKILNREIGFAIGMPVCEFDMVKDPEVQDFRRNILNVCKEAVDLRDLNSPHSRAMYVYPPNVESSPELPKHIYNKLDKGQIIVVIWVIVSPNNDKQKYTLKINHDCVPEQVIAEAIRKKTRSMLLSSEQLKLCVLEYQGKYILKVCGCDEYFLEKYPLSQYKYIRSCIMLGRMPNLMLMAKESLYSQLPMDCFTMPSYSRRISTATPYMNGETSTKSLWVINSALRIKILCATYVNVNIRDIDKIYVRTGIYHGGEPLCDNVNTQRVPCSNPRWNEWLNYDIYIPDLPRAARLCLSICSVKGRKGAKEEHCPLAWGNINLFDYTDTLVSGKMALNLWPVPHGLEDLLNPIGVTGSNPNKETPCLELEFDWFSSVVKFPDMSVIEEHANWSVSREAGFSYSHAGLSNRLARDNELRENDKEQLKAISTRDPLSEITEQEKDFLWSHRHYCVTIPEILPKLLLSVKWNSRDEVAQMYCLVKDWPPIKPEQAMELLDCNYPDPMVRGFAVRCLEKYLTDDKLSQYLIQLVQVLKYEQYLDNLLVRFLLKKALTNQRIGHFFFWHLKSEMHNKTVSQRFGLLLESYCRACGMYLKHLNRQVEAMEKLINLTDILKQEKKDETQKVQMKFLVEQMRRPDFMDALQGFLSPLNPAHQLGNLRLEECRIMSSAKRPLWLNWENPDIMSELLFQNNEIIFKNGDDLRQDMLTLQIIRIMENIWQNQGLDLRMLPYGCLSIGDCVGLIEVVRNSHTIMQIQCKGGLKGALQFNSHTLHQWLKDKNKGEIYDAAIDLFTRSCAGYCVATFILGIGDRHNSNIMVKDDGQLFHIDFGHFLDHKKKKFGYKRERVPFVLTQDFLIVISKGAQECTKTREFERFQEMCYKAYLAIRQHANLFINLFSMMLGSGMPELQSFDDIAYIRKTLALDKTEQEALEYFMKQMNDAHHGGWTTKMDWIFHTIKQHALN

Compound | IC50 [1] | IC50 [2] | EC50 [3] | IC50 [4] | IC50 [5]
Cc1cccc2cc(Cn3nc(-c4ccc5nc(N)[nH]c5c4)c4c(N)ncnc43)n(-c3ccccc3)c(=O)c12 | < 100 nM | < 100 nM | < 100 nM | – | –
Cc1cccc2cc([C@H](C)Nc3ncnc4[nH]cnc34)n(C3CCC3)c(=O)c12 | – | < 100 nM | < 100 nM | – | –
Cc1cccc2cc([C@H](C)Nc3nc(N)ncc3C(F)(F)F)n(-c3ccccc3)c(=O)c12 | < 100 nM | < 100 nM | – | – | –
Cc1cccc2cc([C@H](C)Nc3nc(N)ncc3Cl)n(-c3ccccc3)c(=O)c12 | < 100 nM | < 100 nM | < 100 nM | – | –
CCC(Nc1ncnc2[nH]cnc12)c1cc2cccc(C)c2c(=O)n1-c1ccccc1 (stereo unspecified) | < 100 nM | < 100 nM | < 100 nM | – | –
CC(=O)Nc1nc2cc(-c3nn(Cc4cc5cccc(C)c5c(=O)n4-c4ccccc4C)c4ncnc(N)c34)ccc2o1 | < 100 nM | < 100 nM | < 100 nM | – | –
Cc1cccc2cc(Cn3nc(CF)c4c(N)ncnc43)n(-c3ccccc3)c(=O)c12 | < 100 nM | < 100 nM | < 100 nM | – | –
Cc1cccc2cc(C(C)Nc3ncnc4[nH]cnc34)n(-c3ccc(F)cc3)c(=O)c12 (stereo unspecified) | < 100 nM | < 100 nM | < 100 nM | – | –
Cc1ccccc1-n1c(Cn2nc(-c3ccc4nc(N)[nH]c4c3)c3c(N)ncnc32)cc2cccc(C)c2c1=O | < 100 nM | < 100 nM | < 100 nM | – | –
Cc1cccnc1-n1c(Cn2nc(-c3ccc4oc(N)nc4c3)c3c(N)ncnc32)cc2cccc(C)c2c1=O | < 100 nM | < 100 nM | – | – | –
Cc1cccc2cc([C@H](C)Nc3ncnc4[nH]cnc34)n(-c3ccccc3)c(=O)c12 | < 100 nM | < 100 nM | < 100 nM | – | –
CC(=O)Nc1nc2ccc(-c3nn(Cc4cc5cccc(C)c5c(=O)n4-c4ccccc4)c4ncnc(N)c34)cc2[nH]1 | – | < 100 nM | – | – | –
Cc1cccc2cc([C@H](C)Nc3nc(N)nc4[nH]cnc34)n(-c3ccccc3)c(=O)c12 | < 100 nM | < 100 nM | – | – | –
Cc1ccccc1-n1c(Cn2nc(-c3nn[nH]n3)c3c(N)ncnc32)cc2cccc(C)c2c1=O | < 100 nM | < 100 nM | < 10000 nM | – | –
Cc1cccc2cc(Cn3nc(C#CC4CC4)c4c(N)ncnc43)n(-c3ccccc3F)c(=O)c12 | < 1000 nM | > 10000 nM | < 1000 nM | – | –
Cc1cccnc1-n1c(Cn2nc(-c3cccc(O)c3)c3c(N)ncnc32)cc2ccccc2c1=O | < 1000 nM | < 10000 nM | – | – | –
CCC(Nc1ncnc2[nH]cnc12)c1cc2cccc(C)c2c(=O)n1-c1ccc(F)cc1 (stereo unspecified) | < 100 nM | < 100 nM | < 100 nM | – | –
Cc1ccccc1-n1c(Cn2nc(-c3ccc4sc(N)nc4c3)c3c(N)ncnc32)cc2cccc(C)c2c1=O | < 100 nM | < 100 nM | < 100 nM | – | –
Cc1cccc2cc([C@H](C)Nc3ncnc4[nH]nc(Cl)c34)n(-c3ccccc3)c(=O)c12 | < 100 nM | < 100 nM | – | – | –
Cc1cccc2cc(Cn3cnc4c(N)ncnc43)n(-c3ccccc3F)c(=O)c12 | < 10000 nM | > 10000 nM | < 10000 nM | – | –
Cc1cccc2cc(Cn3nc(-c4ccc5sc(N)nc5c4)c4c(N)ncnc43)n(-c3ccccc3)c(=O)c12 | < 100 nM | < 100 nM | < 100 nM | – | –
Cc1cccc2cc(Cn3nc(-c4ccc5oc(N)nc5c4)c4c(N)ncnc43)n(C3CCC3)c(=O)c12 | < 100 nM | < 100 nM | < 100 nM | – | –
CC(=O)Nc1nc2ccc(-c3nn(Cc4cc5cccc(C)c5c(=O)n4-c4ccccc4C)c4ncnc(N)c34)cc2o1 | < 100 nM | < 100 nM | – | – | –
Cc1cccc2cc([C@H](C)Nc3ncnc4[nH]ccc34)n(-c3ccccc3)c(=O)c12 | < 100 nM | < 100 nM | < 100 nM | – | –
Cc1ccccc1-n1c(Cn2nc(C(F)F)c3c(N)ncnc32)cc2cccc(C)c2c1=O | < 100 nM | < 100 nM | < 100 nM | – | –
Cc1cccc2cc(C(C)Nc3ncnc4[nH]cnc34)n(C3CCCC3)c(=O)c12 (stereo unspecified) | < 100 nM | < 100 nM | < 100 nM | – | –
Cc1cccc2cc([C@H](C)Nc3nc(Cl)nc4[nH]cnc34)n(-c3ccccc3)c(=O)c12 | < 100 nM | < 100 nM | < 100 nM | – | –

Compound | IC50 [1] | IC50 [2] | EC50 [3] | IC50 [4] | IC50 [5]
Cc1cccc2cc(Cn3nc(-c4cc(O)cc(F)c4)c4c(N)ncnc43)n(-c3ccccc3C(C)C)c(=O)c12 | < 100 nM | – | < 100 nM | < 1000 nM | < 1000 nM
Cc1cccc2cc(Cn3nc(-c4ccc(O)c(Cl)c4)c4c(N)ncnc43)n(-c3ccccc3F)c(=O)c12 | < 1000 nM | – | < 10000 nM | > 10000 nM | > 10000 nM
CCc1ccccc1-n1c(Cn2nc(-c3cccc(O)c3)c3c(N)ncnc32)cc2cccc(C)c2c1=O | < 100 nM | – | < 100 nM | > 10000 nM | > 10000 nM
Cc1cccc2cc(Cn3nc(-c4cc(O)cc(F)c4)c4c(N)ncnc43)n(-c3ccccc3F)c(=O)c12 | < 100 nM | – | < 100 nM | < 10000 nM | < 10000 nM
Cc1ccccc1-n1c(Cn2nc(-c3ccc(O)cc3)c3c(N)ncnc32)cc2cccc(C)c2c1=O | < 1000 nM | – | < 1000 nM | > 10000 nM | > 10000 nM
CC(=O)Nc1nc2ccc(-c3nn(Cc4cc5cccc(C)c5c(=O)n4-c4ccccc4)c4ncnc(N)c34)cc2s1 | < 100 nM | – | < 100 nM | < 10000 nM | < 1000 nM
Cc1ccccc1-n1c(Cn2nc(-c3ccc4nc(N)ccc4c3)c3c(N)ncnc32)cc2cccc(C)c2c1=O | < 100 nM | – | < 100 nM | < 10000 nM | < 1000 nM
Cc1cccc2cc([C@H](C)Nc3nc(F)nc4[nH]cnc34)n(-c3ccccc3)c(=O)c12 | < 100 nM | < 100 nM | < 100 nM | – | –
CC(=O)Nc1nc2ccc(-c3nn(Cc4cc5cccc(F)c5c(=O)n4C(C)C)c4ncnc(N)c34)cc2s1 | < 100 nM | – | < 100 nM | < 10000 nM | < 100000 nM
Cc1cccc2cc(Cn3nc(-c4ccc5oc(N)nc5c4)c4c(N)ncnc43)n(-c3ccccc3)c(=O)c12 | < 100 nM | < 100 nM | < 100 nM | – | –
Cc1cccc2cc(Cn3nc(-c4ccc(O)c(F)c4)c4c(N)ncnc43)n(-c3ccccc3F)c(=O)c12 | < 1000 nM | – | < 1000 nM | > 10000 nM | > 10000 nM
Cc1cccc2cc(Cn3nc(I)c4c(N)ncnc43)n(-c3ccccc3F)c(=O)c12 | < 100 nM | < 1000 nM | < 10000 nM | – | –
Cc1cccc2cc(Cn3nc(-c4ccc5nc(N)oc5c4)c4c(N)ncnc43)n(-c3ccccc3)c(=O)c12 | – | 100 to 1000 nM | < 10000 nM | – | –
Cc1ccccc1-n1c(Cn2nc(-c3ccc4nc(N)ncc4c3)c3c(N)ncnc32)cc2cccc(C)c2c1=O | < 100 nM | – | < 100 nM | < 1000 nM | < 100000 nM
Cc1cccc2cc(Cn3nc(-c4cn[nH]c4)c4c(N)ncnc43)n(-c3ccccc3C(C)C)c(=O)c12 | < 100 nM | – | < 100 nM | < 1000 nM | < 10000 nM
Cc1cccc2cc(Cn3nc(C#C[C@@H](C)O)c4c(N)ncnc43)n(C3CCCCC3)c(=O)c12 | < 100 nM | – | < 10000 nM | > 10000 nM | > 10000 nM
CC(=O)Nc1nc2ccc(-c3nn(Cc4cc5cccc(Cl)c5c(=O)n4C4CC4)c4ncnc(N)c34)cc2s1 | < 100 nM | – | < 100 nM | < 100 nM | < 100000 nM
Cc1cccc2cc(Cn3nc(-c4cccc(O)c4)c4c(N)ncnc43)n(C3CCCCC3)c(=O)c12 | < 100 nM | – | < 1000 nM | < 10000 nM | > 10000 nM
Cc1cccc2cc(Cn3nc(-c4cccc(O)c4)c4c(N)ncnc43)n(C3CCC3)c(=O)c12 | < 100 nM | – | < 1000 nM | < 10000 nM | > 10000 nM
Cc1ccccc1-n1c(Cn2nc(-c3cccc(O)c3)c3c(N)ncnc32)cc2cccc(C)c2c1=O | < 100 nM | – | < 100 nM | < 10000 nM | > 10000 nM
Cc1cccc2cc(Cn3nc(-c4cc(O)cc(F)c4)c4c(N)ncnc43)n(-c3ccccc3O)c(=O)c12 | < 100 nM | – | < 100 nM | < 1000 nM | < 10000 nM
Cc1cccnc1-n1c(Cn2nc(-c3ccc(F)c(O)c3)c3c(N)ncnc32)cc2cccc(C)c2c1=O | < 100 nM | – | < 100 nM | > 10000 nM | > 10000 nM
Cc1ccccc1-n1c(Cn2nc(-c3cc(O)cc(F)c3)c3c(N)nccc32)cc2cccc(C)c2c1=O | < 100 nM | – | < 100 nM | < 10000 nM | < 10000 nM
Cc1ccccc1-n1c(Cn2nc(-c3cn[nH]c3)c3c(N)ncnc32)cc2cccc(C)c2c1=O | < 100 nM | – | < 100 nM | < 10000 nM | > 10000 nM
Cc1cccc2cc([C@H](C)Nc3ncnc4[nH]cnc34)n(-c3cccc(F)c3)c(=O)c12 | – | < 100 nM | < 100 nM | – | –
Cc1cccc2cc([C@H](C)Nc3ncnc4[nH]cnc34)n(C(C)C)c(=O)c12 | – | < 100 nM | < 100 nM | – | –
Cc1cccc2cc(Cn3nc(-c4cccc(O)c4)c4c(N)ncnc43)n(C3CC3)c(=O)c12 | < 100 nM | – | < 100 nM | < 1000 nM | < 1000 nM
